Measurements as given in PMC12079500, “An Intracellular Peptide Library Screening Platform Identifies Irreversible Covalent Transcription Factor Inhibitors” (Advanced Science, 2025).
Values joined by “and” are separate entries in the source; they are usually repeats but may differ in a detail not shown here. Identical values can stand only once. Like-named read-outs stand apart in the source and are kept apart here. Where a SMILES comes first, the peptide text is derived from it. Bridges are numbered along the chain shown (N, C = ends). The star is where a group is joined. 5FAM = O=C1OC2(c3ccc(O)cc3Oc3cc(O)ccc32)c2ccc(C(=O)*)cc21

Columns and labels:
[1] = tested on: SK-MEL-28 cells; assay: Cell imaging of FAM-peptide uptake; assay type: cell-based, human; details: SK-MEL-28, 10 and 30 µM, 6 h, 37 °C, fixed, DAPI counterstain, fluorescence microscopy
Procedure: Cell imaging: Cells were seeded at 40,000 cells per well in a […] and incubated for 24 hours before treatment with vehicle (1% DMSO in water) or peptide for 6 hours. The media was removed and the cells were washed 3x with PBS. 1 mL of paraformaldehyde (80 mg/mL in PBS) was added and incubated at room temperature for 10 minutes. The paraformaldehyde was removed and fixed cells were washed with 3x PBS. 500 µL of DAPI (1 µg/mL) was then added and incubated at room temperature for 5 minutes following by a 3x PBS wash. Cells were imaged using an Evos FL digital inverted fluorescence microscope using brightfield and both GFP (for the FAM label) and DAPI fluorescence filters.

[2] = target: T1, cJun/TRE DNA (Homo sapiens, UniProt P05412); assay: CD cJun/TRE DNA antagonism assay (TRE DNA signal at 281 nm); assay type: biochemical; details: for IC50: pH 7.4, 30 min equilibration, triplicate data, Hill fit, error one SD; for cJun-TRE DNA IC50, fold improved (oxidised vs reduced): ratio of IC50 reduced / oxidised
T1 construct: LC-MS analysis of the cJun bZIP domain; made in house
T1 sequence (P05412 252-315 limits assumed): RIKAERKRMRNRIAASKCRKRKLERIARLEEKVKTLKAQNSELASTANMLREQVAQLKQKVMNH
From the text: CD antagonism experiments were next carried out, as previously described,^[ [13], [18] ^] whereby the structure of a TRE DNA duplex was monitored by following a peak at 281 nm, which shifts upon binding to cJun. The introduction of antagonist to the sample causes the peak to shift back to its unbound signal in a dose‐dependent manner as the cJun is sequestered, leaving unbound DNA in its original structure (Figure S9, Supporting Information). As there is no protein absorbance in this region of the CD spectrum, this measures DNA structure only and produces a simple readout of the proportion of free/cJun‐bound DNA at different antagonist concentrations. By fitting these plots to a Hill equation (OriginPro), IC50 values for HW1, HW29, and HW31 were determined in both reducing and oxidizing conditions (Table S1, Supporting Information; Figure 3C).
(§1) Circular dichroism (CD): An Applied Photophysics Chirascan was used for CD measurements, with a 200 µL sample in a 1 mm path length CD cell. Protein/DNA samples were suspended in 20 mM potassium phosphate,150 mM potassium fluoride at pH 7.4 with or without 5 mM TCEP. cJun was added to TRE DNA (5’-[…], Merck) before addition of antagonist peptide and these samples were equilibrated for 30 minutes before measurement.^[13] For full spectra, three scans between 190 and 260 nm (265-320 nm for DNA binding experiments) were collected with a bandwidth of 1 nm and data sampled at a rate of 0.5 s^-1. These scans were averaged and converted to molar residue ellipticities (MRE). Thermal denaturation experiments were performed by measuring the ellipticity at 222 nm over a 1 to 95°C gradient at 1°C increments. Post-melt scans at 20°C confirmed the transitions were reversible as they overlaid within 5% of the pre-melt scan. The resulting thermal denaturation curves were converted to MRE and fitted to a two-state model, derived via modification of the Gibbs–Helmholtz equation to determine the melting temperature (Tm) ^[26].

[3] = target: T2, cJun (Homo sapiens, UniProt P05412); assay: CD thermal denaturation of antagonist-cJun heterodimer; assay type: binding; design: LC-MS analysis of the cJun bZIP domain; made in house; details: for Antagonist-cJun heterodimer Tm, reduced / Antagonist-cJun heterodimer Tm, oxidised: CD at 222 nm, 1-95 °C, 20 mM potassium phosphate, 150 mM KF; for Antagonist-cJun heterodimer Tm, reduced: pH 7.4, with 5 mM TCEP (reducing); for Antagonist-cJun heterodimer Tm, oxidised: pH 7.4, without TCEP (oxidising), HW31 50 µM + cJun 50 µM; for Antagonist-cJun heterodimer Tm, Δox-red: difference of Tm in oxidising and reducing buffer
T2 sequence (P05412 252-315 limits assumed): as above
Procedure: as §1

[4] = target: T2, cJun; assay: CD spectra (helicity) of HW31-cJun mixture; assay type: binding; design: LC-MS analysis of the cJun bZIP domain; made in house; details: oxidised vs reduced buffer
Procedure: as §1

[5] = target: T2, cJun; assay: ESI-MS of HW31 + cJun mixture; assay type: binding; design: LC-MS analysis of the cJun bZIP domain; made in house; details: HW31 50 µM + cJun 50 µM, oxidising conditions; reduced back by TCEP
Procedure: A mixture of HW31 (50 µM) and cJun (50 µM, Figure S4, Supporting Information) was first shown to form a disulphide‐bridged complex by ESI‐MS, which could be reduced back to the separate species by the addition of TCEP (Figure S5, Supporting Information). Further, an Alphafold 3 prediction of HW31 (prediction without lactam bridge) bound to cJun indicates the complex forms the predicted coiled coil interaction with the formation of a disulphide between cJun C269 and HW31 C2 (Figure 3A; Figure S6, Supporting Information).^[ [17] ^] The interaction was next characterized using circular dichroism (CD) experiments in both oxidizing and reducing conditions. The mixing of HW31 and cJun in both conditions provided a clear increase in helicity, indicative of a binding interaction (Figure S7, Supporting Information). The measured HW31‐cJun heterodimer complex was ≈10% more helical in the oxidized buffer relative to the reduced. […] Analytical size exclusion chromatography further validated HW31/cJun binding and confirmed the formation of a 1:1 stoichiometric complex (Figure S8, Supporting Information).

[6] = target: cJun; details: cited from earlier work
From the text: We previously developed cJun peptide antagonists using a Transcription Block Survival (TBS) assay (Figure 1B).^[ [13] ^] This intracellular peptide library screening platform moves beyond conventional peptide screening systems by selecting peptides based on their ability to not only bind to the target but to meet the more demanding task of functionally antagonizing it by i) binding and, more importantly, ii) blocking its ability to form protein‐DNA interactions.

[7] = oxidising buffer (no TCEP), read-out: cJun-TRE DNA IC50, oxidised
[8] = reducing buffer (5 mM TCEP), read-out: cJun-TRE DNA IC50, reduced

IC50 [2, 7] | cJun-TRE DNA IC50, fold improved (oxidised vs reduced) [2] | IC50 [2, 8] | Antagonist-cJun heterodimer Tm, reduced [3] | Antagonist-cJun heterodimer Tm, oxidised [3] | Antagonist-cJun heterodimer Tm, Δox-red [3] | Increase in helicity of the HW31-cJun heterodimer complex in oxidized buffer relative to reduced [4] | Disulphide formation with cJun [5] | Molecule | Cellular uptake (FAM fluorescence within cells) [1] | Kd ([6]; read-out: Affinity for cJun) | Kd ([6]; read-out: Previously determined affinity for cJun)
– | – | – | – | – | – | – | – | CC(C)[C@H](NC(=O)[C@H](CCCCN)NC(=O)[C@H](CCCNC(=N)N)NC(=O)[C@H](CCCCN)NC(=O)[C@H](CCCCN)NC(=O)[C@H](CCCCN)NC(=O)[C@@H]1CCCN1C(=O)c1ccc2c(c1)C(=O)OC21c2ccc(O)cc2Oc2cc(O)ccc21)C(=O)N[C@@H](Cc1ccc(O)cc1)C(=O)NCC(=O)N[C@@H](CCCNC(=N)N)C(=O)N[C@@H](CCCCN)C(=O)N[C@@H](CCCCN)C(=O)N[C@@H](CCCNC(=N)N)C(=O)N[C@@H](CCCNC(=N)N)C(=O)N[C@@H](CCC(N)=O)C(=O)N[C@@H](CCCNC(=N)N)C(=O)N[C@@H](CCCNC(=N)N)C(=O)N[C@@H](CCCNC(=N)N)C(N)=O [FAM-NLSTAT, reference compound] (5FAM-PKKKRKVYGRKKRRQRRR-NH2) | FAM fluorescence was observed within the cells | – | –
12.1 ± 0.3 µM | 4 | 48.3 ± 1.8 µM | 66.6 °C and 67 °C | 81.2 °C and 81 °C | 14.6 °C and 14 °C | ≈ 10% | covalent attachment via a disulphide | CC[C@H](C)[C@H](NC(=O)[C@H](CCC(=O)O)NC(=O)[C@H](CCCCN)NC(=O)[C@H](CCCNC(=N)N)NC(=O)[C@H](CC(C)C)NC(=O)[C@H](C)NC(=O)[C@H](Cc1ccc(O)cc1)NC(=O)[C@H](CC(N)=O)NC(=O)[C@H](CCCNC(=N)N)NC(=O)[C@H](CCC(=O)O)NC(=O)[C@H](CCC(=O)O)NC(=O)[C@H](CC(C)C)NC(=O)[C@H](CCC(N)=O)NC(=O)[C@H](CCC(=O)O)NC(=O)[C@@H](NC(=O)[C@H](CCC(=O)O)NC(=O)[C@H](CCC(=O)O)NC(=O)[C@H](CCC(=O)O)NC(=O)[C@H](CC(C)C)NC(=O)[C@@H](NC(=O)[C@H](CC(=O)O)NC(=O)[C@H](CCC(=O)O)NC(=O)[C@H](CCC(=O)O)NC(=O)[C@@H](NC(=O)[C@@H](NC(=O)[C@H](CC(C)C)NC(=O)[C@H](CCC(=O)O)NC(=O)[C@H](CCC(=O)O)NC(=O)[C@H](CS)NC(=O)[C@H](CCC(=O)O)NC(C)=O)C(C)C)C(C)C)C(C)C)[C@@H](C)CC)C(=O)N[C@H]1CCCCNC(=O)C[C@@H](C(=O)N[C@@H](CCC(N)=O)C(N)=O)NC(=O)[C@H](CCC(N)=O)NC(=O)[C@H](CC(C)C)NC(=O)[C@H](CC(=O)O)NC1=O [HW31] (Ac-ECEELVVEEDVLEEEIEQLEERNYALRKEIKDLQDQ-NH2; lactam 31-35) | – | – | –
11.8 ± 0.3 µM | 1 | 13.8 ± 0.3 µM | 73 °C | 70 °C | -3 °C | – | – | Ac-LEQRAEELARENEELEKEAEELVVEEDVLEEEIEQLEERNYALRKEIEDLQKQLEKL-NH2 [HW1, reference compound] | – | 0.00021 µM | –

Molecule | IC50 [2, 7] | cJun-TRE DNA IC50, fold improved (oxidised vs reduced) [2] | IC50 [2, 8] | Antagonist-cJun heterodimer Tm, reduced [3] | Antagonist-cJun heterodimer Tm, oxidised [3] | Antagonist-cJun heterodimer Tm, Δox-red [3] | Increase in helicity of the HW31-cJun heterodimer complex in oxidized buffer relative to reduced [4] | Disulphide formation with cJun [5] | Cellular uptake (FAM fluorescence within cells) [1] | Kd ([6]; read-out: Affinity for cJun) | Kd ([6]; read-out: Previously determined affinity for cJun)
CC[C@H](C)[C@H](NC(=O)[C@H](CCC(=O)O)NC(=O)[C@H](CCCCN)NC(=O)[C@H](CCCNC(=N)N)NC(=O)[C@H](CC(C)C)NC(=O)[C@H](C)NC(=O)[C@H](Cc1ccc(O)cc1)NC(=O)[C@H](CC(N)=O)NC(=O)[C@H](CCCNC(=N)N)NC(=O)[C@H](CCC(=O)O)NC(=O)[C@H](CCC(=O)O)NC(=O)[C@H](CC(C)C)NC(=O)[C@H](CCC(N)=O)NC(=O)[C@H](CCC(=O)O)NC(=O)[C@@H](NC(=O)[C@H](CCC(=O)O)NC(=O)[C@H](CCC(=O)O)NC(=O)[C@H](CCC(=O)O)NC(=O)[C@H](CC(C)C)NC(=O)[C@@H](NC(=O)[C@H](CC(=O)O)NC(=O)[C@H](CCC(=O)O)NC(=O)[C@H](CCC(=O)O)NC(=O)[C@@H](NC(=O)[C@@H](NC(=O)[C@H](CC(C)C)NC(=O)[C@H](CCC(=O)O)NC(=O)[C@H](CCC(=O)O)NC(=O)[C@H](C)NC(=O)[C@H](CCC(=O)O)NC(C)=O)C(C)C)C(C)C)C(C)C)[C@@H](C)CC)C(=O)N[C@H]1CCCCNC(=O)C[C@@H](C(=O)N[C@@H](CCC(N)=O)C(N)=O)NC(=O)[C@H](CCC(N)=O)NC(=O)[C@H](CC(C)C)NC(=O)[C@H](CC(=O)O)NC1=O [HW29, reference compound] (Ac-EAEELVVEEDVLEEEIEQLEERNYALRKEIKDLQDQ-NH2; lactam 31-35) | – | 1 | – | 68 °C | 66 °C | -2 °C | – | – | – | – | 0.087 ± 0.017 µM
